Activity calls are given as the source filed them. The rule behind the calls is not given here. Where a SMILES comes first, the peptide text is derived from it. [ ]: non-standard residue; d: D form. Tpi = O=C(O)[C@@H]1Cc2c([nH]c3ccccc23)CN1; Igl = N[C@H](C(=O)O)C1Cc2ccccc2C1; hArg = N=C(N)NCCCC[C@H](N)C(=O)O; Cit = NC(=O)NCCC[C@H](N)C(=O)O
Each compound was assayed against Calcitonin gene-related peptide type 1 receptor (Homo sapiens) (UniProt Q16602) (assay: Agonist activity at human CGRP1 receptor in human SK-N-MC cells).
Calcitonin gene-related peptide type 1 receptor (Homo sapiens), sequence (Q16602 whole entry, looked up): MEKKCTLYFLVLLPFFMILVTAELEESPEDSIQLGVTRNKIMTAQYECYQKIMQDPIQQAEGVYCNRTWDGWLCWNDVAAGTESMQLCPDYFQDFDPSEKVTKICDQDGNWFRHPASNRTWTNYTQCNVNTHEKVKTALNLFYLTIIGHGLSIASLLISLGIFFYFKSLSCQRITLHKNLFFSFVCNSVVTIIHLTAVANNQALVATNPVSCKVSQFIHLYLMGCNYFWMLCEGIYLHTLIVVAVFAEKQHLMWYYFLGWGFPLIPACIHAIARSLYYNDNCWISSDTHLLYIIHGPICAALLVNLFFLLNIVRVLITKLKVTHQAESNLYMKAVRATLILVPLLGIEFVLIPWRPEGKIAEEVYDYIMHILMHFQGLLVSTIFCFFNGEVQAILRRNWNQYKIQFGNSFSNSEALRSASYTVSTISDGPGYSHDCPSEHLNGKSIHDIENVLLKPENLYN

Activity, inactive:
CC(=O)N[C@@H](Cc1c[nH]c2ccccc12)C(=O)N[C@H](C(=O)N[C@H](C(=O)N[C@@H](Cc1cnc[nH]1)C(=O)N[C@@H](CCCNC(N)=O)C(=O)N[C@@H](CC(C)C)C(=O)N[C@@H](C)C(=O)NCC(=O)N[C@@H](CC(C)C)C(=O)N[C@@H](CC(C)C)C(=O)N[C@@H](CO)C(=O)N[C@@H](CCCNC(N)=O)C(=O)N[C@@H](CO)C(=O)NCC(=O)NCC(=O)N[C@H](C(=O)N[C@H](C(=O)N[C@@H](CCCCNC(=N)N)C(=O)N[C@@H](CCCCN)C(=O)N[C@@H](CC(N)=O)C(=O)N[C@@H](Cc1ccccc1)C(=O)N[C@H](C(=O)N1CCC[C@H]1C(=O)N[C@H](C(=O)N[C@@H](CC(=O)O)C(=O)N[C@H](C(=O)NCC(=O)N1CCC[C@H]1C(=O)N1Cc2[nH]c3ccccc3c2C[C@H]1C(=O)N[C@@H](C)C(=O)N[C@@H](Cc1ccccc1)C(N)=O)C(C)C)[C@@H](C)O)C(C)C)C(C)C)C(C)C)[C@@H](C)O)C(C)C (Ac-WVTH[Cit]LAGLLS[Cit]SGGVV[hArg]KNFVPTDVGP[Tpi]AF-NH2), CC(=O)N[C@@H](Cc1c[nH]c2ccccc12)C(=O)N[C@H](C(=O)N[C@H](C(=O)N[C@@H](Cc1cnc[nH]1)C(=O)N[C@@H](CCCNC(N)=O)C(=O)N[C@@H](CC(C)C)C(=O)N[C@@H](C)C(=O)NCC(=O)N[C@@H](CC(C)C)C(=O)N[C@@H](CC(C)C)C(=O)N[C@@H](CO)C(=O)N[C@@H](CCCNC(N)=O)C(=O)N[C@@H](CO)C(=O)NCC(=O)NCC(=O)N[C@H](C(=O)N[C@H](C(=O)N[C@@H](CCCCNC(=N)N)C(=O)N[C@@H](CCCCN)C(=O)N[C@@H](CC(N)=O)C(=O)N[C@@H](Cc1ccccc1)C(=O)N[C@H](C(=O)N1CCC[C@H]1C(=O)N[C@H](C(=O)N[C@@H](CC(=O)O)C(=O)N[C@H](C(=O)NCC(=O)NC(C)(C)C(=O)N[C@@H](Cc1ccccc1)C(=O)N[C@@H](C)C(=O)N[C@@H](Cc1ccccc1)C(N)=O)C(C)C)[C@@H](C)O)C(C)C)C(C)C)C(C)C)[C@@H](C)O)C(C)C, CC(=O)N[C@@H](Cc1c[nH]c2ccccc12)C(=O)N[C@H](C(=O)N[C@H](C(=O)N[C@@H](Cc1cnc[nH]1)C(=O)N[C@@H](CCCNC(N)=O)C(=O)N[C@@H](CC(C)C)C(=O)N[C@@H](C)C(=O)NCC(=O)N[C@@H](CC(C)C)C(=O)N[C@@H](CC(C)C)C(=O)N[C@@H](CO)C(=O)N[C@@H](CCCNC(N)=O)C(=O)N[C@@H](CO)C(=O)NCC(=O)NCC(=O)N[C@H](C(=O)N[C@H](C(=O)N[C@@H](CCCCNC(=N)N)C(=O)N[C@@H](CCCCN)C(=O)N[C@@H](CC(N)=O)C(=O)N[C@@H](Cc1ccccc1)C(=O)N[C@H](C(=O)N1CCC[C@H]1C(=O)N[C@H](C(=O)N[C@@H](CC(=O)O)C(=O)N[C@H](C(=O)NCC(=O)N1CCC[C@H]1C(=O)N[C@H](C(=O)N[C@@H](C)C(=O)N[C@@H](Cc1ccccc1)C(N)=O)C1Cc2ccccc2C1)C(C)C)[C@@H](C)O)C(C)C)C(C)C)C(C)C)[C@@H](C)O)C(C)C (Ac-WVTH[Cit]LAGLLS[Cit]SGGVV[hArg]KNFVPTDVGP[Igl]AF-NH2), CC(=O)N[C@@H](Cc1c[nH]c2ccccc12)C(=O)N[C@H](C(=O)N[C@H](C(=O)N[C@@H](Cc1cnc[nH]1)C(=O)N[C@@H](CCCNC(N)=O)C(=O)N[C@@H](CC(C)C)C(=O)N[C@@H](C)C(=O)NCC(=O)N[C@@H](CC(C)C)C(=O)N[C@@H](CC(C)C)C(=O)N[C@@H](CO)C(=O)N[C@@H](CCCNC(N)=O)C(=O)N[C@@H](CO)C(=O)NCC(=O)NCC(=O)N[C@H](C(=O)N[C@H](C(=O)N[C@@H](CCCCNC(=N)N)C(=O)N[C@@H](CCCCN)C(=O)N[C@@H](CC(N)=O)C(=O)N[C@@H](Cc1ccccc1)C(=O)N[C@H](C(=O)N1CCC[C@H]1C(=O)N[C@H](C(=O)N[C@@H](CC(=O)O)C(=O)N[C@H](C(=O)NCC(=O)N1CSC[C@H]1C(=O)N[C@@H](Cc1ccccc1)C(=O)N[C@@H](C)C(=O)N[C@@H](Cc1ccccc1)C(N)=O)C(C)C)[C@@H](C)O)C(C)C)C(C)C)C(C)C)[C@@H](C)O)C(C)C, CC(=O)N[C@@H](Cc1c[nH]c2ccccc12)C(=O)N[C@H](C(=O)N[C@H](C(=O)N[C@@H](Cc1cnc[nH]1)C(=O)N[C@@H](CCCNC(N)=O)C(=O)N[C@@H](CC(C)C)C(=O)N[C@@H](C)C(=O)NCC(=O)N[C@@H](CC(C)C)C(=O)N[C@@H](CC(C)C)C(=O)N[C@@H](CO)C(=O)N[C@@H](CCCNC(N)=O)C(=O)N[C@@H](CO)C(=O)NCC(=O)NCC(=O)N[C@H](C(=O)N[C@H](C(=O)N[C@@H](CCCCNC(=N)N)C(=O)N[C@@H](CCCCN)C(=O)N[C@@H](CC(N)=O)C(=O)N[C@@H](Cc1ccccc1)C(=O)N[C@H](C(=O)N1CCC[C@H]1C(=O)N[C@H](C(=O)N[C@@H](CC(=O)O)C(=O)N[C@H](C(=O)NCC(=O)N1CCC[C@@H]1C(=O)N[C@@H](Cc1ccc(-c2ccccc2)cc1)C(=O)N[C@@H](C)C(=O)N[C@@H](Cc1ccccc1)C(N)=O)C(C)C)[C@@H](C)O)C(C)C)C(C)C)C(C)C)[C@@H](C)O)C(C)C, CC(=O)N[C@@H](Cc1c[nH]c2ccccc12)C(=O)N[C@H](C(=O)N[C@H](C(=O)N[C@@H](Cc1cnc[nH]1)C(=O)N[C@@H](CCCNC(=N)N)C(=O)N[C@@H](CC(C)C)C(=O)N[C@@H](C)C(=O)NCC(=O)N[C@@H](CC(C)C)C(=O)N[C@@H](CC(C)C)C(=O)N[C@@H](CO)C(=O)N[C@@H](CCCNC(N)=O)C(=O)N[C@@H](CO)C(=O)NCC(=O)NCC(=O)N[C@H](C(=O)N[C@H](C(=O)N[C@@H](CCCNC(=N)N)C(=O)N[C@@H](CCCCN)C(=O)N[C@@H](CC(N)=O)C(=O)N[C@@H](Cc1ccccc1)C(=O)N[C@H](C(=O)N1CCC[C@H]1C(=O)N[C@H](C(=O)N[C@@H](CC(=O)O)C(=O)N[C@H](C(=O)NCC(=O)N1CCC[C@H]1C(=O)N[C@@H](Cc1ccccc1)C(=O)N[C@@H](C)C(=O)N[C@@H](Cc1ccccc1)C(N)=O)C(C)C)[C@@H](C)O)C(C)C)C(C)C)C(C)C)[C@@H](C)O)C(C)C, CC(=O)N[C@@H](Cc1c[nH]c2ccccc12)C(=O)N[C@H](C(=O)N[C@H]1CCC(=O)NCCCC[C@@H](C(=O)NCC(=O)N[C@@H](CC(C)C)C(=O)N[C@@H](CC(C)C)C(=O)N[C@@H](CO)C(=O)N[C@@H](CCCNC(=N)N)C(=O)N[C@@H](CO)C(=O)NCC(=O)NCC(=O)N[C@H](C(=O)N[C@H](C(=O)N[C@@H](CCCNC(=N)N)C(=O)N[C@@H](CCCCN)C(=O)N[C@@H](CC(N)=O)C(=O)N[C@@H](Cc2ccccc2)C(=O)N[C@H](C(=O)N2CCC[C@H]2C(=O)N[C@H](C(=O)N[C@@H](CC(=O)O)C(=O)N[C@H](C(=O)NCC(=O)N2CCC[C@H]2C(=O)N[C@@H](Cc2ccccc2)C(=O)N[C@@H](C)C(=O)N[C@@H](Cc2ccccc2)C(N)=O)C(C)C)[C@@H](C)O)C(C)C)C(C)C)C(C)C)NC(=O)[C@H](CC(C)C)NC(=O)[C@H](CCCNC(=N)N)NC(=O)[C@H](Cc2cnc[nH]2)NC1=O)C(C)C

— ChEMBL document CHEMBL1151745, “Identification of potent, selective, and metabolically stable peptide antagonists to the calcitonin gene-related peptide (CGRP) receptor” (J Med Chem, 2008)
